≈ marks a conversion by molar mass, not a printed value. Where two headings read alike, the source gives them in different places.
Assays:
Solubility assessment = type: physicochemical; settings: kinetic from dmso stock
Caco-2 permeability = type: in vitro ADME; settings: human
[1] = Microsomal stability, human (HLM); type: in vitro ADME
[2] = Microsomal stability, rat (RLM); type: in vitro ADME
[3] = Pharmacokinetic (PK) assessment in rats; type: in vivo; settings: for Cmax / Tmax / MRT last / half-life / AUC(0-t) / AUC(0-inf): rat, plasma; for MRT last: read-out: MRT MRT last; for half-life: read-out: T ½ HL_Lambda_z (converted); for AUC(0-t): read-out: AUC0→t AUC last; for AUC(0-inf): read-out: AUC0→∞ AUC INF_obs
PAK1 = PAK1 (Homo sapiens, UniProt Q13153); assay: PAK1 IC50 determination, Z'-LYTE kinase assay; type: biochemical; settings: [ATP]=10×Km; [PAK1]=1 ng; read-out: IC50 against PAK1
Description: Protocol for determining IC50 Values for test compounds at [ATP]=10×Km; [PAK1]=1 ng
Add 2 ml 5× Kinase Buffer to 8 ml water to prepare […] of Kinase Buffer A.
• Thaw the concentrated stock of test compound at room temperature. • 2.1. Add 10 μl of 100% DMSO to row A, columns 2-11 (wells A2-A11) in a 96-well assay plate (non-binding surface). To well A1, add 15 μl of the concentrated stock of test compound. This will be the highest concentration of test compound in a 10-point titration curve. Use a concentration that is 100× the final desired 1× concentration per 10 μl kinase reaction. For example, if the final 1× concentration of 100 μM is desired for the highest concentration of test compound in the 10 point titration curve, add 15 μl of 10 mM test compound to well A1. • 2.2. Titrate the 100× test compound three-fold across the assay plate from well A1 to well A10. To perform this threefold titration, transfer 5 μl of the 100× test compound from well A1 to the 10 μl of 100% DMSO in well A2. Repeat for wells A2-A10. Discard the final 5 μl from well A10 so that all wells contain 10 μl. […] This completes the 10-point three-fold titration of test compound at 100× concentration. • 2.3. Transfer a 2 μl aliquot of the 100× test compound titration series from each well in row A of the 96-well assay plate (wells A1-A12) to row B (wells B1-B12). Add 48 μl of complete kinase reaction buffer to each well in row B to dilute the 100× three-fold titration series of test compound to 4× (the DMSO will also be diluted, to 4%). • 2.4. Transfer 2.5 μl of the 4× concentrated three-fold titration series of test compound from row B of the 96-well assay plates to quadruplicate wells of a 384-well assay plate. Each well in columns 21-24 should contain 2.5 μl of 4% DMSO (no compound) in complete kinase reaction buffer. This 2.5 μl addition of 4× test compound in 4% DMSO produces a 1× concentration of test compound in 1% DMSO for a 10 μl kinase reaction. • 2.5. Dispense 2.5 μl of complete kinase reaction buffer to each well in columns 23-24 of the 384-well assay plate.
• 1. Prepare 500 μl of 4 μM Z′-LYTE® Phospho-peptide by adding 2 μl of 1 mM Z′-LYTE® Phospho-peptide to 498 μl of complete kinase reaction buffer. • 2. Dispense 5 μl of the 4 μM Z′-LYTE® Phospho-peptide (2×) to each well in column 24 of the 384-well assay plate. • 3. Prepare 1000 μl of 4 μM Z′-LYTE® Peptide Substrate (2×)/2× kinase solution in complete kinase reaction buffer. If necessary, prepare an intermediate dilution of the kinase in complete kinase reaction buffer before preparing the Z′-LYTE™ Peptide Substrate (2×)/2× kinase solution. Use the appropriate 2× kinase concentration in the assay to phosphorylate 20-50% of the 0% inhibition controls at the ATP concentration desired. • 4. […]

Chain of PAK1 (Q13153 whole entry): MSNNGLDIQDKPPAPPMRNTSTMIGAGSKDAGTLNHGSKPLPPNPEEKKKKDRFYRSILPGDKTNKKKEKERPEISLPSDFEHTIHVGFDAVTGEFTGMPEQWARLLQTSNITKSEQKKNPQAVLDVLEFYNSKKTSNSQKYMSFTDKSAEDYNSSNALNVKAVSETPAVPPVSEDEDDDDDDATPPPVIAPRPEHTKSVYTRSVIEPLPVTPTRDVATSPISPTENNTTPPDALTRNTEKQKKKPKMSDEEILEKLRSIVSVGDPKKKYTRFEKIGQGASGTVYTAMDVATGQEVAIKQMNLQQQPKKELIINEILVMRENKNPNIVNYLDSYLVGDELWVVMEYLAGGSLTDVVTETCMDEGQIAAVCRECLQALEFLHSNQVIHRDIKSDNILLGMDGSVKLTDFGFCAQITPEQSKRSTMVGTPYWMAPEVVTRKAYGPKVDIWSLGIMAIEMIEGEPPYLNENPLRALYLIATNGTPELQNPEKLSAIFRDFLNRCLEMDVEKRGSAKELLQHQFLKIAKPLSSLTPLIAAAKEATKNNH

What does the source list for `CCn1c(=O)c(-c2ccc(-c3nc(C)c[nH]3)cc2Cl)cc2cnc(Nc3ccc(N4CCN(C)CC4)cc3)nc21` [Compound 42-0125_1]?
solubility (Solubility assessment; aqueous buffer, UB pH 2, 1% DMSO, read-out: Solubility in UB pH 2, 1% DMSO): 59 µM (≈ 32.8 µg/mL); solubility (Solubility assessment; aqueous buffer, UB pH 7, 1% DMSO, read-out: Solubility in UB pH 7, 1% DMSO): 25 µM (≈ 13.9 µg/mL); solubility (Solubility assessment; simulated gastric fluid, SGF, 1% DMSO, read-out: Solubility in SGF, 1% DMSO): 58 µM (≈ 32.2 µg/mL); efflux ratio (Caco-2 permeability; Caco-2, read-out: Assym index): 1; Papp A→B (Caco-2 permeability; Caco-2, A-B): 3.9 ×10⁻⁶ cm/s; Papp B→A (Caco-2 permeability; Caco-2, B-A): 3.8 ×10⁻⁶ cm/s; microsomal CLint ([1]; human, human liver microsomes, HLM): 12 µL/min/mg; half-life ([1]; liver microsomes, human microsomes, read-out: t½): 1.98 h; half-life ([2]; liver microsomes, rat microsomes, read-out: t½): 2.45 h; microsomal CLint ([2]; rat, rat liver microsomes, RLM): 9 µL/min/mg; Cl_obs ([3]; IV, 3 mg/kg): 4.97 mL/min/kg; Vss_obs ([3]; IV, 3 mg/kg): 1.705 L/kg; Biovailability ([3]; PO 30 mg/kg versus IV 3 mg/kg): 13.9%; Cmax ([3]; IV, 3 mg/kg): 3620 ng/mL; Tmax ([3]; IV, 3 mg/kg): 0.17 h; MRT last ([3]; IV, 3 mg/kg): 5 h; half-life ([3]; IV, 3 mg/kg): 5 h; Cmax ([3]; PO, 30 mg/kg): 943 ng/mL; Tmax ([3]; PO, 30 mg/kg): 8 h; MRT last ([3]; PO, 30 mg/kg): 10 h; half-life ([3]; PO, 30 mg/kg): 6.19 h; AUC(0-t) ([3]; iv, 3 mg/kg, IV, 3 mg/kg): 9750 ng·h/mL; AUC(0-inf) ([3]; iv, 3 mg/kg, IV, 3 mg/kg): 10100 ng·h/mL; AUC(0-t) ([3]; po, 30 mg/kg, PO, 30 mg/kg): 12600 ng·h/mL; AUC(0-inf) ([3]; po, 30 mg/kg, PO, 30 mg/kg): 14000 ng·h/mL; IC50 (PAK1): < 30 nM

From patent publication US11065251B2, “PAK1 inhibitors and uses thereof” (Albert Einstein College of Medicine, priority 2016, dated 2021)
